# Data from patent US20230381146A1, “SUBSTITUTED HETEROARYL COMPOUNDS AND USE THEREOF” (HELIOS HUAMING BIOPHARMA CO., LTD., priority 2020, published 2023).
# Molecular target: PAD4 (Homo sapiens, UniProt Q9UM07)
# Assay: PAD4 Inhibition Assay (citrulline formation from BAEE substrate)
# Type: biochemical
# Settings: PAD4 75 nM, 60 minute preincubation at 37° C., 90 minutes
# Description: PAD4 was diluted to 75 nM in Assay Buffer (50 mM Tris-HCl, 2 mM CaCl2), 2 mM DTT, 1 mM PMSF in H2O) and added to wells with various concentrations of compound or DMSO vehicle in Eppendorf tubes (final volume was 100 μL). Following a 60 minute preincubation at 37° C., the reaction was initiated by the addition of 10 μL substrate (22 mM BAEE in H2O) at 37° C. The reaction was stopped after 90 minutes by the addition of 25 μL HClO4 (5 M), 125 μL Reagent A (10 g/L diacetyl monoxime and 15 g/L NaCl in H2O) and 250 μL Reagent B (10 mg/mL antipyrine and 1.0 mg/mL FeCl3 diluted in detection buffer containing 25% H2SO4, 25% H3PO4 and 50% H2O) in sequence. This assay was quenched in an ice-bath for 5 minutes after boiling for 30 minutes. The citrulline formation was measured in fluorescence (κ=465 nm) on microplate reader and the IC50 was calculated by GraphPad Prism.
# Sequence of PAD4 (Q9UM07 whole entry): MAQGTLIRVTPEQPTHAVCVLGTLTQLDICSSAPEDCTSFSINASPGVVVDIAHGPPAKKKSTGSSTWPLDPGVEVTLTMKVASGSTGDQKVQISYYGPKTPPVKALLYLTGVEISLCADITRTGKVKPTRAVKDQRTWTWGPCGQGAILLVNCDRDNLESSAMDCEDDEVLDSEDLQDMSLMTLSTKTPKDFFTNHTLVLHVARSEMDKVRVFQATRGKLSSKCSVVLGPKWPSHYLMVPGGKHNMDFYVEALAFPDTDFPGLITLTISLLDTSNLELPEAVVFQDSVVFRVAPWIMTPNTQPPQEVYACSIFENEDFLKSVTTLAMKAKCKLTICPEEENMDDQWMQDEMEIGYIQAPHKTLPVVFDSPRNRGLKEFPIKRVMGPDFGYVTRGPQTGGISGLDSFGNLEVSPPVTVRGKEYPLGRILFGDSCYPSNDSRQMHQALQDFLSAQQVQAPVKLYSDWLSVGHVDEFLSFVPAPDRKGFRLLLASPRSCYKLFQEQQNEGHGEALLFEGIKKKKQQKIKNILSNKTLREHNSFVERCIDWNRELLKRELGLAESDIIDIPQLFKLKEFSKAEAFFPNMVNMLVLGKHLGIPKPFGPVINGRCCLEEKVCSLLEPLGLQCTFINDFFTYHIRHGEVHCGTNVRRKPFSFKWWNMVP
row,Structure (SMILES),IC50
1,"N=C(CCl)NCCC[C@H](NC(=O)c1cccc(-c2cccc(Cl)c2)c1)c1ncc(-c2ccccc2)o1 [EX-2, (S)-3′-chloro-N-(4-(2-chloroacetimidamido)-1-(5-phenyloxazol-2-yl)butyl)-[1,1′-biphenyl]-3-carboxamide]",> 500 nM
2,"CN(C)c1ccc2cc(C(=O)N[C@@H](CCCNC(=N)CF)c3ncc(-c4ccc(Cl)cc4)o3)ccc2c1 [EX-7, (S)—N-(1-(5-(4-chlorophenyl)oxazol-2-yl)-4-(2-fluoroacetimidamido)butyl)-6-(dimethylamino)-2-naphthamide]",> 500 nM
3,"CN(C)c1ccc2cc(C(=O)N[C@@H](CCCNC(=N)CF)c3ncc(-c4cccc(F)c4)o3)ccc2c1 [EX-8, (S)-6-(Dimethylamino)-N-(4-(2-fluoroacetimidamido)-1-(5-(3-fluorophenyl)oxazol-2-yl)butyl)-2-naphthamide]",> 500 nM
4,"N=C(CF)NCCC[C@H](NC(=O)c1cccc(-c2ccc(CO)cc2)c1)c1ncc(-c2ccc(Cl)cc2)o1 [EX-9, (S)—N-(1-(5-(4-chlorophenyl)oxazol-2-yl)-4-(2-fluoroacetimidamido)butyl)-4′-(hydroxymethyl)-[1,1′-biphenyl]-3-carboxamide]",> 500 nM
5,"COc1cc2c(OC)cccc2cc1C(=O)N[C@@H](CCCNC(=N)CF)c1ncc(C)o1 [EX-12, (S)-N-(4-(2-fluoroacetimidamido)-1-(5-methyloxazol-2-yl)butyl)-3,5-dimethoxy-2-naphthamide]",> 500 nM
6,N=C(CF)NCCC[C@H](NC(=O)c1cccc(-c2cc(Cl)ccn2)c1)c1ncc(-c2ccccc2)o1 [EX-15],> 500 nM
7,"N=C(CF)NCCC[C@H](NC(=O)c1cccc(N2CCCC2)c1)c1ncc(-c2ccccc2)o1 [EX-16, (S)—N-(4-(2-fluoroacetimidamido)-1-(5-phenyloxazol-2-yl)butyl)-3-(pyrrolidin-1-yl)benzamide]",200 to 500 nM
8,"COc1ccc(N2CCOCC2)cc1C(=O)N[C@@H](CCCNC(=N)CF)c1ncc(-c2ccccc2)o1 [EX-17, (S)-N-(4-(2-Fluoroacetimidamido)-1-(5-phenyloxazol-2-yl)butyl)-2-methoxy-5-morpholinobenzamide]",> 500 nM
9,"COc1ccc(N2CCN(C)CC2)cc1C(=O)N[C@@H](CCCNC(=N)CF)c1ncc(-c2ccccc2)o1 [EX-18, (S)-N-(4-(2-Fluoroacetimidamido)-1-(5-phenyloxazol-2-yl)butyl)-2-methoxy-5-(4-methylpiperazin-1-yl)benzamide]",200 to 500 nM
10,COc1cccc(OC)c1C(=O)N[C@@H](CCCNC(=N)CF)c1ncc(-c2ccc(Cl)cc2)o1 [EX-19],200 to 500 nM
11,"COc1ccc(-c2cnc([C@H](CCCNC(=N)CF)NC(=O)c3c(OC)cccc3OC)o2)cc1 [EX-20, (S)-N-(4-(2-Fluoroacetimidamido)-1-(5-(4-methoxyphenyl)oxazol-2-yl)butyl)-2,6-dimethoxybenzamide]",200 to 500 nM
12,"COc1cccc(Cl)c1C(=O)N[C@@H](CCCNC(=N)CF)c1ncc(-c2ccc(Cl)cc2)o1 [EX-22, (S)-2-chloro-N-(1-(5-(4-chlorophenyl)oxazol-2-yl)-4-(2-fluoroacetimidamido)butyl)-6-methoxybenzamide]",200 to 500 nM
13,"CN(C)c1cccc(Cl)c1C(=O)N[C@@H](CCCNC(=N)CF)c1ncc(-c2ccc(Cl)cc2)o1 [EX-23, (S)-2-Chloro-N-(1-(5-(4-chlorophenyl)oxazol-2-yl)-4-(2-fluoroacetimidamido)butyl)-6-(dimethylamino)benzamide]",200 to 500 nM
14,"COc1cccc(Cl)c1C(=O)N[C@@H](CCCNC(=N)CF)c1ncc(-c2cc(F)cc(F)c2)o1 [EX-25, (S)-2-Chloro-N-(1-(5-(3,5-difluorophenyl)oxazol-2-yl)-4-(2-fluoroacetimidamido)butyl)-6-methoxybenzamide]",200 to 500 nM
15,"COc1cccc(Cl)c1C(=O)N[C@@H](CCCNC(=N)CF)c1ncc(-c2ccccc2Cl)o1 [EX-26, (S)-2-Chloro-N-(1-(5-(2-chlorophenyl)oxazol-2-yl)-4-(2-fluoroacetimidamido)butyl)-6-methoxybenzamide]",200 to 500 nM
16,"COc1cccc(Cl)c1C(=O)N[C@@H](CCCNC(=N)CF)c1ncc(-c2cccc(C(F)(F)F)c2)o1 [EX-27, (S)-2-Chloro-N-(4-(2-fluoroacetimidamido)-1-(5-(3-(trifluoromethyl)phenyl)oxazol-2-yl)butyl)-6-methoxybenzamide]",> 500 nM
17,"COc1cccc(Cl)c1C(=O)N[C@@H](CCCNC(=N)CF)c1ncc(-c2cccc(C)c2)o1 [EX-28, (S)-2-Chloro-N-(4-(2-fluoroacetimidamido)-1-(5-(m-tolyl)oxazol-2-yl)butyl)-6-methoxybenzamide]",200 to 500 nM
18,"COc1cccc(Cl)c1C(=O)N[C@@H](CCCNC(=N)CF)c1ncc(-c2ccc(N(C)C)cc2)o1 [EX-29, (S)-2-Chloro-N-(1-(5-(4-(dimethylamino)phenyl)oxazol-2-yl)-4-(2-fluoroacetimidamido)butyl)-6-methoxybenzamide]",> 500 nM
19,"N=C(CF)NCCC[C@H](NC(=O)c1c(Cl)cccc1Cl)c1ncc(-c2ccc(F)cc2)o1 [EX-30, (S)-2,6-Dichloro-N-(4-(2-fluoroacetimidamido)-1-(5-(4-fluorophenyl)oxazol-2-yl)butyl)benzamide]",> 500 nM
20,"COc1cccc(F)c1C(=O)N[C@@H](CCCNC(=N)CF)c1ncc(-c2cccc(C)c2)o1 [EX-31, (S)-2-Fluoro-N-(4-(2-fluoroacetimidamido)-1-(5-(m-tolyl)oxazol-2-yl)butyl)-6-methoxybenzamide]",200 to 500 nM
21,"Cc1cccc(-c2cnc([C@H](CCCNC(=N)CF)NC(=O)c3c(F)cccc3F)o2)c1 [EX-32, (S)-2,6-Difluoro-N-(4-(2-fluoroacetimidamido)-1-(5-(m-tolyl)oxazol-2-yl)butyl)benzamide]",200 to 500 nM
22,"COc1cccc(Cl)c1C(=O)N[C@@H](CCCNC(=N)CF)c1ncc(-c2cccc(Cl)c2)o1 [EX-33, (S)-2-Chloro-N-(1-(5-(3-chlorophenyl)oxazol-2-yl)-4-(2-fluoroacetimidamido)butyl)-6-methoxybenzamide]",200 to 500 nM
23,"N=C(CF)NCCC[C@H](NC(=O)c1c(F)cccc1Cl)c1ncc(-c2cccc(Cl)c2)o1 [EX-35, (S)-2-Chloro-N-(1-(5-(3-chlorophenyl)oxazol-2-yl)-4-(2-fluoroacetimidamido)butyl)-6-fluorobenzamide]",200 to 500 nM

# More lines, now with the values ahead:
row,IC50,Structure (SMILES)
1,200 to 500 nM,"N=C(CF)NCCC[C@H](NC(=O)c1cccc(-c2cccc(Cl)c2)c1)c1ncc(-c2ccccc2)o1 [EX-1, (S)-3′-chloro-N-(4-(2-fluoroacetimidamido)-1-(5-phenyloxazol-2-yl)butyl)-[1,1′-biphenyl]-3-carboxamide]"
2,200 to 500 nM,"CN(C)c1ccc2cc(C(=O)N[C@@H](CCCNC(=N)CCl)c3ncc(-c4ccccc4)o3)ccc2c1 [EX-3, N-[(1S)-4-(2-chloroethanimidamido)-1-(5-phenyl-1,3-oxazol-2-yl)butyl]-6-(dimethylamino)naphthalene-2-carboxamide]"
3,200 to 500 nM,"CN(C)c1ccc2cc(C(=O)N[C@@H](CCCNC(=N)CF)c3ncc(-c4ccccc4)o3)ccc2c1 [EX-4, (S)-6-(Dimethylamino)-N-(4-(2-fluoroacetimidamido)-1-(5-phenyloxazol-2-yl)butyl)-2-naphthamide]"
4,200 to 500 nM,"COc1cccc(-c2cccc(C(=O)N[C@@H](CCCNC(=N)CF)c3ncc(-c4ccccc4)o3)c2)c1 [EX-5, (S)—N-(4-(2-fluoroacetimidamido)-1-(5-phenyloxazol-2-yl)butyl)-3′-methoxy-[1,1′-biphenyl]-3-carboxamide]"
5,200 to 500 nM,"COc1ccc(-c2cccc(C(=O)N[C@@H](CCCNC(=N)CF)c3ncc(-c4ccccc4)o3)c2)cc1 [EX-6, (S)—N-(4-(2-fluoroacetimidamido)-1-(5-phenyloxazol-2-yl)butyl)-4′-methoxy-[1,1′-biphenyl]-3-carboxamide]"
6,< 200 nM,COc1cc2c(OC)cccc2cc1C(=O)N[C@@H](CCCNC(=N)CF)c1ncc(-c2ccccc2)o1 [EX-10]
7,200 to 500 nM,"COc1cc2c(OC)cccc2cc1C(=O)N[C@@H](CCCNC(=N)CF)c1ncc(C2CCCC2)o1 [EX-11, (S)-N-(1-(5-Cyclopentyloxazol-2-yl)-4-(2-fluoroacetimidamido)butyl)-3,5-dimethoxy-2-naphthamide]"
8,200 to 500 nM,"COc1cc2c(OC)cccc2cc1C(=O)N[C@@H](CCCNC(=N)CF)c1ncc(-c2cccc(Cl)c2)o1 [EX-13, (S)-N-(1-(5-(3-Chlorophenyl)oxazol-2-yl)-4-(2-fluoroacetimidamido)butyl)-3,5-dimethoxy-2-naphthamide]"
9,200 to 500 nM,"COc1cc2c(OC)cccc2cc1C(=O)N[C@@H](CCCNC(=N)CF)c1ncc(-c2cccc(F)c2)o1 [EX-14, (S)-N-(4-(2-Fluoroacetimidamido)-1-(5-(3-fluorophenyl)oxazol-2-yl)butyl)-3,5-dimethoxy-2-naphthamide]"
10,< 200 nM,"COc1cccc(OC)c1C(=O)N[C@@H](CCCNC(=N)CF)c1ncc(-c2ccccc2Cl)o1 [EX-21, (S)-N-(1-(5-(2-Chlorophenyl)oxazol-2-yl)-4-(2-fluoroacetimidamido)butyl)-2,6-dimethoxybenzamide]"
11,< 200 nM,"COc1cccc(Cl)c1C(=O)N[C@@H](CCCNC(=N)CF)c1ncc(-c2ccc(F)cc2)o1 [EX-24, (S)-2-Chloro-N-(4-(2-fluoroacetimidamido)-1-(5-(4-fluorophenyl)oxazol-2-yl)butyl)-6-methoxybenzamide]"
12,< 200 nM,"COc1cc2ccccc2cc1C(=O)N[C@@H](CCCNC(=N)CF)c1ncc(-c2ccccc2)o1 [EX-36, (S)—N-(4-(2-fluoroacetimidamido)-1-(5-phenyloxazol-2-yl)butyl)-3-methoxy-2-naphthamide]"
